One data set deals with M-HeLa. Kind of data set: Cytotoxicity against human HelaM cells assessed as number of viable cells measured after 48 hrs by MTT based colorimetric assay. In kind it is functional, cell-based. (In general: Formazan colour is commonly taken as a measure of viable cells.)
Another data set relates to MCF7. Kind of data set: Cytotoxicity against human MCF7 cells assessed as number of viable cells measured after 48 hrs by MTT based colorimetric assay. It is filed as functional, cell-based. Conditions: MCF7, 48 h.
In data set [1] the test system is HuTu80. Kind of data set: Cytotoxicity against human HuTu80 cells assessed as number of viable cells measured after 48 hrs by MTT based colorimetric assay. It is filed as functional, cell-based. To be noted: HuTu80, 48 h.
The subject of a further data set is PANC-1. Kind of data set: Cytotoxicity against human PANC-1 cells assessed as number of viable cells measured after 48 hrs by MTT based colorimetric assay. It is filed as functional, cell-based. To be noted: PANC-1, 48 h.
A further data set relates to A549. The data set is described as follows: Cytotoxicity against human A549 cells assessed as number of viable cells measured after 48 hrs by MTT based colorimetric assay. To be noted: A549, 48 h. In kind it is functional, cell-based.
In the next data set the test system is T98G. The data set is described as follows: Cytotoxicity against human T98G cells assessed as number of viable cells measured after 48 hrs by MTT based colorimetric assay. In kind it is functional, cell-based.
The next data set concerns HepG2. The data set is described as follows: Cytotoxicity against human HepG2 cells assessed as number of viable cells measured after 48 hrs by MTT based colorimetric assay. In kind it is functional, cell-based. To be noted: HepG2, 48 h.
The subject of another data set is SK-OV-3. Kind of data set: Cytotoxicity against human SK-OV-3 cells assessed as number of viable cells measured after 48 hrs by MTT based colorimetric assay. It is filed as functional, cell-based. Conditions: SK-OV-3, 48 h.
Another data set deals with DU-145. Kind of data set: Cytotoxicity against human DU-145 cells assessed as number of viable cells measured after 48 hrs by MTT based colorimetric assay. It is filed as functional, cell-based. Conditions: DU-145, 48 h.
Data set [2] in a line: Cytotoxicity against human WI-38 cells assessed as number of viable cells measured after 48 hrs by MTT based colorimetric assay. It is filed as toxicity, cell-based.
The nature of data set [3]: Cytotoxicity against human Chang liver cells assessed as number of viable cells measured after 48 hrs by MTT based colorimetric assay. It is filed as toxicity, cell-based.
A further data set has as its system PC-3. Kind of data set: Cytotoxicity against human PC-3 cells assessed as number of viable cells measured after 48 hrs by MTT based colorimetric assay. In kind it is functional, cell-based. To be noted: PC-3, 48 h.
For the next data set, the species on record is Homo sapiens. The data set is described as follows: Selectivity index, ratio of IC50 for human WI-38 cells to IC50 for human HuTu80 cells.
The subject of data set [4] is HuTu80. The data set is described as follows: Induction of apoptosis in human HuTu80 cells assessed as viable cells at 5 uM incubated for 48 hrs by annexin V FITC/propidium iodide staining based flow cytometry analysis (reference value: 93.71%). It is filed as functional. Conditions: read-out: Activity. On the technique in general: Flow cytometry measures light scatter and fluorescence of single cells or particles in a stream.

Data set [5] concerns HuTu80. Kind of data set: Induction of apoptosis in human HuTu80 cells assessed as viable cells at 10 uM incubated for 48 hrs by annexin V FITC/propidium iodide staining based flow cytometry analysis (reference value: 93.71%). It is filed as functional. Conditions: read-out: Activity.
Data set [6] deals with HuTu80. Kind of data set: Induction of apoptosis in human HuTu80 cells assessed as early apoptotic cells at 5 uM incubated for 48 hrs by annexin V FITC/propidium iodide staining based flow cytometry analysis (reference value: 1.74%). It is filed as functional.
In data set [7] the test system is HuTu80. Kind of data set: Induction of apoptosis in human HuTu80 cells assessed as early apoptotic cells at 10 uM incubated for 48 hrs by annexin V FITC/propidium iodide staining based flow cytometry analysis (reference value: 1.74%). In kind it is functional.
Data set [8] has as its system HuTu80. Kind of data set: Induction of apoptosis in human HuTu80 cells assessed as late apoptotic cells at 5 uM incubated for 48 hrs by annexin V FITC/propidium iodide staining based flow cytometry analysis (reference value: 0.00%). It is filed as functional.
Data set [9] deals with HuTu80. The data set is described as follows: Induction of apoptosis in human HuTu80 cells assessed as late apoptotic cells at 10 uM incubated for 48 hrs by annexin V FITC/propidium iodide staining based flow cytometry analysis (reference value: 0.00%). It is filed as functional.
The test system of data set [10] is HuTu80. Kind of data set: Induction of apoptosis in human HuTu80 cells assessed as necrotic cells at 5 uM incubated for 48 hrs by annexin V FITC/propidium iodide staining based flow cytometry analysis (reference value: 4.56%). In kind it is functional.
The test system of data set [11] is HuTu80. Kind of data set: Induction of apoptosis in human HuTu80 cells assessed as necrotic cells at 10 uM incubated for 48 hrs by annexin V FITC/propidium iodide staining based flow cytometry analysis (reference value: 4.56%). In kind it is functional.
For data set [12], the system named is HuTu80. The data set is described as follows: Induction of cell cycle arrest in human HuTu80 cells assessed as accumulation of cell at G1/G0 phase at 5 uM measured after 48 hrs by propidium iodide staining based analysis (reference value: 72%). It is filed as functional.
Data set [13] deals with HuTu80. The data set is described as follows: Induction of cell cycle arrest in human HuTu80 cells assessed as accumulation of cell at G1/G0 phase at 10 uM measured after 48 hrs by propidium iodide staining based analysis (reference value: 72%). In kind it is functional.
Data set [14] deals with HuTu80. The data set is described as follows: Induction of cell cycle arrest in human HuTu80 cells assessed as accumulation of cell at G2/M phase at 5 uM measured after 48 hrs by propidium iodide staining based analysis (reference value: 18.7%). It is filed as functional.
For data set [15], the system named is HuTu80. Kind of data set: Induction of cell cycle arrest in human HuTu80 cells assessed as accumulation of cell at G2/M phase at 10 uM measured after 48 hrs by propidium iodide staining based analysis (reference value: 18.7%). It is filed as functional.
Data set [16] deals with HuTu80. Kind of data set: Induction of cell cycle arrest in human HuTu80 cells assessed as accumulation of cell at S phase at 5 uM measured after 48 hrs by propidium iodide staining based analysis (reference value: 8.1%). In kind it is functional.
The subject of data set [17] is HuTu80. The data set is described as follows: Induction of cell cycle arrest in human HuTu80 cells assessed as accumulation of cell at S phase at 10 uM measured after 48 hrs by propidium iodide staining based analysis (reference value: 8.1%). In kind it is functional.
In data set [18] the test system is HuTu80. The data set is described as follows: Induction of ROS production in human HuTu80 cells assessed as increase in fluorescence intensity at 5 uM measured after 48 hrs by flow cytometry based analysis (reference value: 380). It is filed as functional.
For data set [19], the system named is HuTu80. The data set is described as follows: Induction of ROS production in human HuTu80 cells assessed as increase in fluorescence intensity at 10 uM measured after 48 hrs by flow cytometry based analysis (reference value: 380). In kind it is functional.
The test system of data set [20] is HuTu80. Kind of data set: Induction of mitochondrial membrane potential loss in human HuTu80 cells assessed as J-monomer green fluorescence intensity at 5 uM incubated for 24 hrs by JC10 staining based flow cytometry method (reference value: 5.7%). It is filed as functional.
The test system of data set [21] is HuTu80. The data set is described as follows: Induction of mitochondrial membrane potential loss in human HuTu80 cells assessed as J-monomer green fluorescence intensity at 10 uM incubated for 24 hrs by JC10 staining based flow cytometry method (reference value: 5.7%). In kind it is functional.
For data set [22], the system named is HuTu80. Kind of data set: Induction of mitochondrial membrane potential loss in human HuTu80 cells assessed as J-aggregates red fluorescence intensity at 5 uM incubated for 24 hrs by JC10 staining based flow cytometry method (reference value: 94.4%). In kind it is functional.
Data set [23] deals with HuTu80. The data set is described as follows: Induction of mitochondrial membrane potential loss in human HuTu80 cells assessed as J-aggregates red fluorescence intensity at 10 uM incubated for 24 hrs by JC10 staining based flow cytometry method (reference value: 94.4%). It is filed as functional.
Data set [24] deals with Staphylococcus aureus. The data set is described as follows: Antimicrobial activity against Staphylococcus aureus ATCC 6538 P FDA 209P by serial microdilution method. It is filed as functional. (Broth dilution looks for growth in wells or tubes with falling amounts of substance.)
Data set [25] deals with Bacillus cereus. Kind of data set: Antimicrobial activity against Bacillus cereus ATCC 10702 NCTC 8035 by serial microdilution method. It is filed as functional.
The test system of data set [26] is Enterococcus faecalis. The data set is described as follows: Antimicrobial activity against Enterococcus faecalis ATCC 29212 by serial microdilution method. In kind it is functional.
Data set [27] concerns Escherichia coli. The data set is described as follows: Antimicrobial activity against Escherichia coli ATCC 25922 by serial microdilution method. In kind it is functional.
For data set [28], the system named is Staphylococcus aureus. The data set is described as follows: Bactericidal against Staphylococcus aureus ATCC 6538 P FDA 209P by serial microdilution method. In kind it is functional.
The subject of data set [29] is Bacillus cereus. The data set is described as follows: Bactericidal activity against Bacillus cereus ATCC 10702 NCTC 8035 by serial microdilution method. It is filed as functional.
Data set [30] concerns Enterococcus faecalis. Kind of data set: Bactericidal activity against Enterococcus faecalis ATCC 29212 by serial microdilution method. It is filed as functional.
Data set [31] relates to Escherichia coli. The data set is described as follows: Bactericidal activity against Escherichia coli ATCC 25922 by serial microdilution method. In kind it is functional.

Each structure is given as a SMILES string.

One may read the IC50 as the concentration at which inhibition is half-maximal. For the molecule `COc1cccc2c1C(=O)c1c(O)c3c(c(O)c1C2=O)C[C@@](O)(C(=O)CO)C[C@@H]3O[C@H]1C[C@H](N)[C@H](O)[C@H](C)O1` [DOXORUBICIN], the IC50 in the data set with M-HeLa is 2.1 µM; in the data set on MCF7 it was 0.4 µM; in the data set with HuTu80 [1] it was 0.2 µM; in the data set on PANC-1, 2.2 µM; with A549, 0.7 µM; with T98G, 1 µM. The IC50 in the data set on HepG2 is 0.2 µM; in the data set on SK-OV-3, 6.7 µM; with DU-145 it was 0.3 µM. For the same molecule, the IC50 at 48 h in [2] worked out at 0.4 µM; in data set [3], 0.5 µM.
For orientation: MIC means the lowest concentration found to suppress growth. A word on the MBC: it is the lowest tested concentration that kills the bacteria rather than only halting them. A lower MBC goes with more potent killing. With `CCCCCCCC/C=C\CCCCCCCC(=O)OCC(O)COC(=O)CCCC[P+](c1ccccc1)(c1ccccc1)c1ccccc1.[Br-]` (stereo not given), the IC50 in the data set with M-HeLa was 60.2 µM; with MCF7 it was 52.1 µM; in the data set on HuTu80 [1], 10 µM; in the data set on PANC-1, 62.5 µM; in the data set with A549 it was 71.3 µM; in the data set on PC-3, 51 µM. Moreover, the IC50 in the data set on T98G was 62.5 µM; in the data set on HepG2 it was 100 µM; with SK-OV-3, 52 µM; in the data set with DU-145, 41 µM. Further, the IC50 at 48 h in [2] was determined as 53.1 µM; in data set [3], 34 µM. Moreover, the Ratio IC50 in the data set filed under Homo sapiens was found to be 5.1. Besides, the viability at 5 µM with HuTu80 [4] was 63.7%. In addition, in the data set on HuTu80 [5], the viability at 10 µM was determined as 37.6%. The Activity is 3.35% in the data set with HuTu80 [6]; 4.78% in the data set on HuTu80 [7]; 15.18% in the data set with HuTu80 [8]; 33.13% in the data set on HuTu80 [9]; 17.73% in the data set with HuTu80 [10]; 24.48% with HuTu80 [11]. For the same molecule, the Activity amounted to 84% with HuTu80 [12]; 87% in the data set on HuTu80 [13]; 3% in the data set with HuTu80 [14]; 1.1% in the data set with HuTu80 [15]; 2.1% with HuTu80 [16]; 1.2% with HuTu80 [17]. In addition, the Activity is reported as 49% in the data set on HuTu80 [20], 67.5% with HuTu80 [21], 51.1% in the data set with HuTu80 [22] and 30.1% in the data set with HuTu80 [23]. The figures for the Flu intensity in the data set on HuTu80 [18] and with HuTu80 [19] were 700 and 1500, respectively. For the same molecule, the MIC in the data set with Staphylococcus aureus [24] stood at 31.3 µM; in the data set with Bacillus cereus [25], 7.8 µM; in the data set with Enterococcus faecalis [26], 7.8 µM; in the data set on Escherichia coli [27], 125 µM. Also, the MBC turned out to be 500 µM with Staphylococcus aureus [28], 500 µM in the data set with Bacillus cereus [29], 125 µM in the data set with Enterococcus faecalis [30] and 125 µM against Escherichia coli [31].
`O=c1[nH]cc(F)c(=O)[nH]1` [FLUOROURACIL]: the IC50 in the data set with M-HeLa was 62 µM; in the data set on HuTu80 [1], 65.2 µM; with PANC-1, 100 µM; in the data set with A549 it was 32.4 µM; in the data set with PC-3 it was 10.3 µM; with SK-OV-3, 47.2 µM. Further, the IC50 at 48 h was 62 µM in data set [2] and 19 µM in data set [3].

For the origin of these results see ChEMBL document CHEMBL5252638, “Novel triphenylphosphonium amphiphilic conjugates of glycerolipid type: synthesis, cytotoxic and antibacterial activity, and targeted cancer cell delivery” (RSC Med Chem, 2023).
